Measurements from the supplement of paper PMC13380429.
± gives the standard deviation of the averaged measurements.

Key:
Conditions in all cases: 72 h
Caco-2 [1] = assay: cell viability relative to DMSO; higher = less toxic
Calu-3 [2] = assay: as above
HepG2 [3] = assay: as above
U2OS [4] = assay: as above
Vero E6 [5] = assay: as above
Caco-2 [6] = assay: relative viability EC50 (midpoint between 100% and the lowest measured viability); higher = less toxic
Calu-3 [7] = assay: as above
HepG2 [8] = assay: as above
U2OS [9] = assay: as above
Vero E6 [10] = assay: as above
Caco-2 [11] = assay: drug sensitivity score (DSS) for viability; higher = more toxic; extreme values may be limits of the assay
Calu-3 [12] = assay: as above
HepG2 [13] = assay: as above
U2OS [14] = assay: as above
Vero E6 [15] = assay: as above

Structure (SMILES) | cell viability (Caco-2 [1]; 1 nM) | cell viability (Caco-2 [1]; 10 nM) | cell viability (Caco-2 [1]; 100 nM) | cell viability (Caco-2 [1]; 1000 nM) | cell viability (Caco-2 [1]; 10000 nM) | cell viability (Calu-3 [2]; 1 nM) | cell viability (Calu-3 [2]; 10 nM) | cell viability (Calu-3 [2]; 100 nM) | cell viability (Calu-3 [2]; 1000 nM) | cell viability (Calu-3 [2]; 10000 nM) | cell viability (HepG2 [3]; 1 nM) | cell viability (HepG2 [3]; 10 nM) | cell viability (HepG2 [3]; 100 nM) | cell viability (HepG2 [3]; 1000 nM) | cell viability (HepG2 [3]; 10000 nM) | cell viability (U2OS [4]; 1 nM) | cell viability (U2OS [4]; 10 nM) | cell viability (U2OS [4]; 100 nM) | cell viability (U2OS [4]; 1000 nM) | cell viability (U2OS [4]; 10000 nM) | cell viability (Vero E6 [5]; 1 nM) | cell viability (Vero E6 [5]; 10 nM) | cell viability (Vero E6 [5]; 100 nM) | cell viability (Vero E6 [5]; 1000 nM) | cell viability (Vero E6 [5]; 10000 nM) | relative viability EC50 (Caco-2 [6]) | relative viability EC50 (Calu-3 [7]) | relative viability EC50 (HepG2 [8]) | relative viability EC50 (U2OS [9]) | relative viability EC50 (Vero E6 [10]) | drug sensitivity score (Caco-2 [11]) | drug sensitivity score (Calu-3 [12]) | drug sensitivity score (HepG2 [13]) | drug sensitivity score (U2OS [14]) | drug sensitivity score (Vero E6 [15])
CN1C(=O)N[C@H](Cc2c[nH]c3c(Cl)cccc23)C1=O [necrostatin-2] | 99% | 112% | 99.4% | 108% | 102% | 97.1% | 110% | 93.9% | 96.9% | 90.4% | 112% | 99.3% | 95.3% | 91.3% | 108% | 103% | 109% | 105% | 107% | 95.1% | 104% | 102% | 103% | 99.1% | 97.8% | > 10 µM | > 10 µM | > 10 µM | > 10 µM | > 10 µM | 0 | 0 | 0 | 0 | 0
CC[C@H]1[C@@H](O)[C@@H]2[C@H](CC[C@]3(C)[C@@H]([C@H](C)CCC(=O)O)CC[C@@H]23)[C@@]2(C)CC[C@@H](O)C[C@@H]12 [obeticholic-acid] | 98.7 ± 5.8% | 104 ± 4.4% | 95 ± 8.5% | 94.8 ± 1.6% | 95.5 ± 1.6% | 106 ± 6.7% | 100 ± 2.4% | 105.9 ± 0.57% | 97.5 ± 6.6% | 98.2 ± 7.2% | 100 ± 4.6% | 102 ± 17% | 95.5 ± 8.1% | 103 ± 3.2% | 104.8 ± 0.14% | 102% | 104% | 96.1% | 104% | 99.2% | 109 ± 20% | 94.8 ± 3.3% | 99.8 ± 12% | 97.3 ± 0.57% | 103 ± 7.1% | > 10 µM | > 10 µM | > 10 µM | > 10 µM | > 10 µM | 0.25 ± 0.35 | 0 | 0 | 0 | 0
C=CC(=O)Nc1cc(Nc2nccc(-c3cn(C)c4ccccc34)n2)c(OC)cc1N(C)CCN(C)C [osimertinib] | 82.7% | 97.2% | 94.2% | 72.6% | 9.1% | 92.6% | 92.9% | 72.2% | 36.7% | 0.7% | 99.6% | 98.8% | 104% | 82.4% | 6% | 95.7% | 99.2% | 92.3% | 83.6% | 5% | 95.9% | 93.8% | 90.4% | 57.7% | 0% | 1.44 µM | 0.374 µM | 1.8 µM | 1.86 µM | 1.19 µM | 8.8 | 15.8 | 8.1 | 8 | 10.4
CCN(CC)CCOCCOC(=O)C(CC)(CC)c1ccccc1 [oxelaidin] | 106% | 85.5% | 95.9% | 107% | 97.3% | 99% | 95.8% | 94.8% | 94.5% | 99.7% | 104% | 103% | 104% | 95.6% | 87.1% | 96.9% | 92.6% | 94.3% | 107% | 101% | 94.2% | 95.9% | 102% | 99.9% | 104% | > 10 µM | > 10 µM | > 10 µM | > 10 µM | > 10 µM | 0 | 0 | 0.3 | 0 | 0
CCn1cc(C(=O)O)c(=O)c2cc(F)c(N3CCN(C)CC3)cc21 [pefloxacin] | 94.5% | 80.2% | 104% | 89.5% | 94.1% | 100% | 97.8% | 97.2% | 83.3% | 99% | 88.6% | 100% | 106% | 99.3% | 94.6% | 104% | 94.8% | 98.4% | 96% | 96% | 96.8% | 101% | 94.2% | 95.3% | 90.4% | > 10 µM | > 10 µM | > 10 µM | > 10 µM | > 10 µM | 0 | 0 | 0 | 0 | 0
O=c1[nH]c2ccccc2c(=O)n1CCCN1CCN(c2ccccc2)CC1 [pelanserin] | 101% | 102% | 94% | 103% | 91.7% | 94.5% | 96.2% | 103% | 102% | 116% | 91.1% | 93% | 95.7% | 107% | 93.6% | 97% | 104% | 95.6% | 95.2% | 94.8% | 104% | 105% | 102% | 105% | 95.5% | > 10 µM | > 10 µM | > 10 µM | > 10 µM | > 10 µM | 0 | 0 | 0 | 0 | 0
O=C(O)c1ccccc1C(=O)Nc1ccc(S(=O)(=O)Nc2nccs2)cc1 [phthalylsulfathiazole] | 106% | 93.9% | 94.1% | 102% | 93.7% | 105% | 86.8% | 106% | 107% | 107% | 87.5% | 107% | 115% | 111% | 112% | 97.9% | 98% | 102% | 96.8% | 99.7% | 92.2% | 98.9% | 94.9% | 94.5% | 108% | > 10 µM | > 10 µM | > 10 µM | > 10 µM | > 10 µM | 0 | 0 | 0 | 0 | 0
O=C1CC[C@@H](C(=O)N2CSC[C@H]2C(=O)O)N1 [pidotimod] | 102% | 91.6% | 106% | 102% | 92.7% | 97.4% | 104% | 97.3% | 96% | 102% | 98.4% | 101% | 101% | 105% | 106% | 93.9% | 93.3% | 101% | 99.9% | 106% | 97.8% | 101% | 94.8% | 101% | 107% | > 10 µM | > 10 µM | > 10 µM | > 10 µM | > 10 µM | 0 | 0 | 0 | 0 | 0
CN[C@@H](C)CC1CCCCC1 [propylhexedrine] | 88% | 111% | 86% | 79.4% | 102% | 97.4% | 104% | 104% | 90.2% | 97.9% | 102% | 101% | 99.3% | 97.8% | 94.1% | 104% | 99.6% | 100% | 99.2% | 100% | 99.2% | 110% | 106% | 104% | 95.7% | > 10 µM | > 10 µM | > 10 µM | > 10 µM | > 10 µM | 0 | 0 | 0 | 0 | 0
CCC(=O)NCC[C@@H]1CCc2ccc3c(c21)CCO3 [ramelteon] | 102% | 96.8% | 97.1% | 101% | 95.6% | 106% | 90.7% | 100% | 86.3% | 98.4% | 105% | 112% | 105% | 108% | 89% | 99.5% | 98.4% | 101% | 96.1% | 98.7% | 112% | 110% | 106% | 100% | 99.5% | > 10 µM | > 10 µM | > 10 µM | > 10 µM | > 10 µM | 0 | 0 | 0 | 0 | 0
CCn1nc(C)c2c1C(c1ccccc1)=NCC(=O)N2 [ripazepam] | 96.9% | 103% | 104% | 101% | 124% | 97.4% | 102% | 95.6% | 109% | 95.8% | 106% | 100% | 98.9% | 92.2% | 113% | 96.4% | 99.1% | 93.2% | 102% | 98.2% | 95.6% | 99.9% | 104% | 100% | 97.1% | > 10 µM | > 10 µM | > 10 µM | > 10 µM | > 10 µM | 0 | 0 | 0 | 0 | 0
CN(C)CCc1c[nH]c2ccc(Cn3cncn3)cc12 [rizatriptan] | 91.9% | 102% | 101% | 97.2% | 87.7% | 96.5% | 107% | 99.8% | 97.3% | 99.1% | 99% | 93.5% | 102% | 92.8% | 104% | 99% | 106% | 96.5% | 98.6% | 96.5% | 101% | 94.8% | 98.7% | 99.3% | 98.8% | > 10 µM | > 10 µM | > 10 µM | > 10 µM | > 10 µM | 0.2 | 0 | 0 | 0 | 0
CCCCc1ccc(O)cc1O [rucinol] | 102% | 95.3% | 83.5% | 114% | 106% | 101% | 98% | 83.4% | 102% | 83.8% | 110% | 87.5% | 107% | 92.5% | 81.5% | 101% | 99% | 99.8% | 104% | 96.7% | 111% | 84.9% | 106% | 91.8% | 103% | > 10 µM | > 10 µM | > 10 µM | > 10 µM | > 10 µM | 0 | 0.1 | 1.3 | 0 | 0
OC[C@H]1O[C@@H](OCCc2ccc(O)cc2)[C@H](O)[C@@H](O)[C@@H]1O [salidroside] | 103% | 92.2% | 92.3% | 106% | 104% | 96% | 106% | 102% | 87.2% | 113% | 91.4% | 97% | 109% | 87% | 104% | 102% | 93.9% | 96% | 103% | 101% | 95.5% | 94.8% | 93.2% | 99.8% | 107% | > 10 µM | > 10 µM | > 10 µM | > 10 µM | > 10 µM | 0 | 0 | 0 | 0 | 0
